# Experimental data as given in paper PMC8489232, “Structural and catalytic characterization of Blastochloris viridis and Pseudomonas aeruginosa homospermidine synthases supports the essential role of cation–π interaction” (Acta Crystallographica. Section D, Structural Biology, 2021).
# Residue numbers refer to the chain shown, from its start. Names and notes keep the numbering of the source.
# B1: Blastochloris viridis homospermidine synthase, wild type (enzyme)
# chain: MTDWPVYHRIDGPIVMIGFGSIGRGTLPLIERHFAFDRSKLVVIDPSDEARKLAEARGVRFIQQAVTRDNYRELLVPLLTAGPGQGFCVNLSVDTSSLDIMELARENGALYIDTVVEPWLGFYFDPDLKPEARSNYALRETVLAARRNKPGGTTAVSCCGANPGMVSWFVKQALVNLAADLGVTGEEPTTREEWARLAMDLGVKGIHIAERDTQRASFPKPFDVFVNTWSVEGFVSEGLQPAELGWGTFERWMPDNARGHDSGCGAGIYLLQPGANTRVRSWTPTAMAQYGFLVTHNESISIADFLTVRDAAGQAVYRPTCHYAYHPCNDAVLSLHEMFGSGKRQSDWRILDETEIVDGIDELGVLLYGHGKNAYWYGSQLSIEETRRIAPDQNATGLQVSSAVLAGMVWALENPNAGIVEADDLDFRRCLEVQTPYLGPVVGVYTDWTPLAGRPGLFPEDIDTSDPWQFRNVLVRD
# notes: also called BvHSS; wild-type BvHSS; source: E. coli BL21(DE3) Gold, purified (as described previously, Krossa et al., 2016)
# B2: Blastochloris viridis homospermidine synthase variant E210A (enzyme)
# chain: B1 chain with E210A
# notes: homospermidine synthase of Blastochloris viridis, UniProtKB O32323, single-residue variant made by site-directed mutagenesis of BvHSS pETM-14; Same construct as m2 with one substitution; also called BvHSS (E210A); BvHSS E210A; source: E. coli BL21(DE3) Gold, purified (as described previously, Krossa et al., 2016)
# B3: Blastochloris viridis homospermidine synthase variant E210Q (enzyme)
# chain: B1 chain with E210Q
# notes: homospermidine synthase of Blastochloris viridis, UniProtKB O32323, single-residue variant made by site-directed mutagenesis of BvHSS pETM-14; Same construct as m2 with one substitution; also called BvHSS (E210Q); BvHSS E210Q; source: E. coli BL21(DE3) Gold, purified (as described previously, Krossa et al., 2016)
# B4: Blastochloris viridis homospermidine synthase variant W229E (enzyme)
# chain: B1 chain with W229E
# notes: homospermidine synthase of Blastochloris viridis, UniProtKB O32323, single-residue variant made by site-directed mutagenesis of BvHSS pETM-14; Same construct as m2 with one substitution; also called BvHSS (W229E); BvHSS W229E; source: E. coli BL21(DE3) Gold, purified (as described previously, Krossa et al., 2016)
# B5: Blastochloris viridis homospermidine synthase variant W229F (enzyme)
# chain: B1 chain with W229F
# notes: homospermidine synthase of Blastochloris viridis, UniProtKB O32323, single-residue variant made by site-directed mutagenesis of BvHSS pETM-14; Same construct as m2 with one substitution; also called BvHSS (W229F); BvHSS W229F; source: E. coli BL21(DE3) Gold, purified (as described previously, Krossa et al., 2016)
# B6: Blastochloris viridis homospermidine synthase variant W229A (enzyme)
# chain: B1 chain with W229A
# notes: homospermidine synthase of Blastochloris viridis, UniProtKB O32323, single-residue variant made by site-directed mutagenesis of BvHSS pETM-14; Same construct as m2 with one substitution; also called BvHSS (W229A); BvHSS W229A; source: E. coli BL21(DE3) Gold, purified (as described previously, Krossa et al., 2016)
# B7: Blastochloris viridis homospermidine synthase variant E117Q (enzyme)
# chain: B1 chain with E117Q
# notes: homospermidine synthase of Blastochloris viridis, UniProtKB O32323, single-residue variant made by site-directed mutagenesis of BvHSS pETM-14; Same construct as m2 with one substitution; also called BvHSS (E117Q); BvHSS E117Q; source: E. coli BL21(DE3) Gold, purified (as described previously, Krossa et al., 2016)
# Assays:
# BvHSS [1] = target: T1, BvHSS (Blastochloris viridis, UniProt O32323, E210A); test: X-ray crystal structure, […] A; format: binding; conditions: 1.3 mM NAD+ in protein solution; both subunits
# T1 construct: gene hss; full length in pETM-14, E. coli BL21(DE3) Gold; dimer, 106 kDa theoretical
# BvHSS [2] = target: T2, BvHSS (Blastochloris viridis, UniProt O32323, W229F); test: X-ray crystal structure, […] A; format: binding; conditions: 1.3 mM NAD+ in protein solution; both subunits; PUT soak, no PUT modelled
# T2 construct: gene hss; full length in pETM-14, E. coli BL21(DE3) Gold; dimer, 106 kDa theoretical
# BvHSS [3] = target: T3, BvHSS (Blastochloris viridis, UniProt O32323, E210Q); test: X-ray crystal structure, […] A; format: binding; conditions: 1.3 mM NAD+ in protein solution; both subunits
# T3 construct: gene hss; full length in pETM-14, E. coli BL21(DE3) Gold; dimer, 106 kDa theoretical
# BvHSS [4] = target: T4, BvHSS (Blastochloris viridis, UniProt O32323, W229A); test: X-ray crystal structure, […] A; format: binding; conditions: 1.3 mM NAD+ in protein solution; both subunits; PUT soak
# T4 construct: gene hss; full length in pETM-14, E. coli BL21(DE3) Gold; dimer, 106 kDa theoretical
# BvHSS [5] = target: T5, BvHSS (Blastochloris viridis, UniProt O32323, W229E); test: X-ray crystal structure, […] A; format: binding; conditions: 1.3 mM NAD+ in protein solution; both subunits; PUT soak, no PUT modelled
# T5 construct: gene hss; full length in pETM-14, E. coli BL21(DE3) Gold; dimer, 106 kDa theoretical
# PaHSS = target: T6, PaHSS (Pseudomonas aeruginosa, UniProt Q6X2Y9); test: X-ray crystal structure, […] A; format: binding
# T6 construct: gene CL-17; full length, codon-optimized synthetic gene in pETM-14, E. coli BL21(DE3) Gold; N-terminal 6xHis tag removed with HRV3C protease; 52 kDa monomer in solution (SEC-MALS); crystalline dimers
# T6 sequence (Q6X2Y9 1-469): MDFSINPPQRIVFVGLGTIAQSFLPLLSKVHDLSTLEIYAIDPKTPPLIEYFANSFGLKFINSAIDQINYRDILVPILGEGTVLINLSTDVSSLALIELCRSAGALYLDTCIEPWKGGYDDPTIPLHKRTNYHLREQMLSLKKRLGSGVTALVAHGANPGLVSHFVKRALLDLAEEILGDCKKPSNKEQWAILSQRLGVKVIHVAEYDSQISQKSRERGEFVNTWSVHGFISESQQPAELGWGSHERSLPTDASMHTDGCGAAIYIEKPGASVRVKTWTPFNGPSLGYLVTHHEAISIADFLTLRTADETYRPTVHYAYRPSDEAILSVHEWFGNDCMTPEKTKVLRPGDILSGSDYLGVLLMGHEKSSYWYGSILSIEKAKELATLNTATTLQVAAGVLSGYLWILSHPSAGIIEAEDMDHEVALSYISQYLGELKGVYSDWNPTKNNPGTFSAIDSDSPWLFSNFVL
# BvHSS [6] = target: T7, BvHSS (Blastochloris viridis, UniProt O32323, E117Q); test: X-ray crystal structure, […] A; format: binding; conditions: 1.3 mM NAD+ in protein solution; both subunits; two ribose conformers
# T7 construct: gene hss; full length in pETM-14, E. coli BL21(DE3) Gold; dimer, 106 kDa theoretical
# [7] = target: the molecule itself; test: SEC-MALS; HPLC-MALS of the purified proteins in solution; data not shown; method in Supplementary Section S1
# [8] = target: the molecule itself; test: crystal structure; BvHSS variants, hanging-drop vapor diffusion at 291 K, sodium acetate pH 4.6-4.8, PEG 10 000, with NAD+ and agmatine sulfate; space group P22(1)2(1), two molecules in the asymmetric unit
# T4 sequence (O32323 whole entry W229A): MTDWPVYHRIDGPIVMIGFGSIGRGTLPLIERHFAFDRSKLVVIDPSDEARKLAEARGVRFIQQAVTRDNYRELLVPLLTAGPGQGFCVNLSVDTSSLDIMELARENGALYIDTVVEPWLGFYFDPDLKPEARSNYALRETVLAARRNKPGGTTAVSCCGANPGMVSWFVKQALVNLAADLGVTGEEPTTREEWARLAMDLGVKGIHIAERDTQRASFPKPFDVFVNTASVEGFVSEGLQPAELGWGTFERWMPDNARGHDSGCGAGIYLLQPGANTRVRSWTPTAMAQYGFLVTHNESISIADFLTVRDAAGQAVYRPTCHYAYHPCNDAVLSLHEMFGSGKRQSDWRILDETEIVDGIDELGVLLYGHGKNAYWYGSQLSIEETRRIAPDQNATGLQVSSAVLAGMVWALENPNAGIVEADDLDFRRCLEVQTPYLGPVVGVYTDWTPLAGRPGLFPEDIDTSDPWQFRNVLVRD
# T1 sequence (O32323 whole entry E210A): as the sequence (O32323 whole entry W229A) above, with E210A, A229W counted along it
# T3 sequence (O32323 whole entry E210Q): as the sequence (O32323 whole entry W229A) above, with E210Q, A229W counted along it
# T2 sequence (O32323 whole entry W229F): as the sequence (O32323 whole entry W229A) above, with A229F counted along it
# T5 sequence (O32323 whole entry W229E): as the sequence (O32323 whole entry W229A) above, with A229E counted along it
# T7 sequence (O32323 whole entry E117Q): as the sequence (O32323 whole entry W229A) above, with E117Q, A229W counted along it
molecule,measurement,setting,value
"NC(=O)c1ccc[n+]([C@@H]2O[C@H](COP(=O)(O)OP(=O)(O)OC[C@H]3O[C@@H](n4cnc5c(N)ncnc54)[C@H](O)[C@@H]3O)[C@@H](O)[C@H]2O)c1 [NAD^+, nicotinamide adenine dinucleotide]","X-ray crystal structure, 1.75 A",BvHSS [1],with each subunit containing an NAD^+ molecule in the binding pocket
same,"X-ray crystal structure, 2.08 A",BvHSS [2],with each subunit containing an NAD^+ molecule in the binding pocket
same,"X-ray crystal structure, 1.93 A",BvHSS [3],with each subunit containing an NAD^+ molecule in the binding pocket
same,"X-ray crystal structure, 2.00 A",BvHSS [4],with each subunit containing an NAD^+ molecule in the binding pocket
same,"X-ray crystal structure, 2.76 A",BvHSS [5],with each subunit containing an NAD^+ molecule in the binding pocket
same,"X-ray crystal structure, 2.42 A","PaHSS; 1.3 mM NAD+ in protein solution, all six chains",All six PaHSS molecules contain an NAD^+ molecule in their binding pockets
same,"X-ray crystal structure, 1.77 A",BvHSS [6],with each subunit containing an NAD^+ molecule in the binding pocket
"NCCCCN [PUT, 1,4-diaminobutane]","X-ray crystal structure, 2.42 A","PaHSS; PUT not added, assumed co-purified from E. coli, active site of chains A, C and E, NAD+ present","molecules A, C and E additionally contain a PUT molecule in the active site"
B1,stoichiometry N,[7],2
B2,binding result,[8],binds
B3,binding result,[8],binds
B4,binding result,[8],binds
B5,binding result,[8],binds
B6,binding result,[8],binds
B7,binding result,[8],binds
